The source made the active and inactive calls. No cut-off for these calls is given here.

A short description of experiment [1]: Inhibition of tubulin assembly at 10 mg/ml.
Experiment [2] in a line: Inhibition of microtubule disassembly.
Experiment [3] can be described thus: Inhibition of tubulin assembly.
The nature of experiment [4]: Inhibition of microtubule disassembly at 10 mg/ml.

A word on the inhibition: it is the share of the control response that was lost under treatment. Higher therefore signals a strong effect. Compound `CC(C)=CCC/C(C)=C/C[C@H]1C[C@]2(CC=C(C)C)C(=O)[C@@](CC=C(C)C)(C(=O)C(C(=O)c3ccc(O)c(O)c3)=C2O)C1(C)C` registered an inhibition in experiment [1] of 41%. Further, in experiment [2], the outcome was inactive.
Broadly, the IC50 is the concentration that inhibits the measured activity by half. A lower IC50 goes with higher potency. Consider `C=C(C)[C@@H](CC=C(C)C)C[C@@]12C[C@@H](CC=C(C)C)C(C)(C)[C@@](CC=C(C)C)(C(=O)C(C(=O)c3ccc(O)c(O)c3)=C1O)C2=O` [GARCINOL], for which inhibition in experiment [3] was half-maximal at 97 µM (IC50). Also, the inhibition in experiment [4] is 46%.
Regarding `CC(C)=CCC/C(C)=C/C[C@@H]1C[C@@]2(C/C=C(\C)CCC=C(C)C)C(=O)[C@](CC=C(C)C)(C(=O)C(C(=O)c3ccc(O)c(O)c3)=C2O)C1(C)C` [GUTTIFERONE B], the IC50 in experiment [3] is 53 µM. In addition, the outcome in experiment [2] was inactive.
In experiment [3], `CC(C)=CCC/C(C)=C/C[C@@H]1C[C@]2(CC=C(C)C)C(=O)[C@@](CC=C(C)C)(C(=O)C(C(=O)c3ccc(O)c(O)c3)=C2O)C1(C)C` [OBLONGIFOLIN B] showed an IC50 of 69 µM. The compound further had an inhibition in experiment [4] of 7%.
In experiment [3], `CC(C)=CCC/C(C)=C/C[C@@H]1C[C@]2(CC=C(C)C)C(=O)[C@@](CC=C(C)C)(C(=O)C(C(=O)c3ccc(O)c(O)c3)=C2O)[C@@]1(C)CCC=C(C)C` [OBLONGIFOLIN C] yielded an IC50 of 53 µM. For the same compound, the outcome in experiment [2] was inactive.
For the compound `CC(C)=CCC/C(C)=C/C[C@H]1C[C@]2(C/C=C(\C)CCC=C(C)C)C(=O)[C@@](CC=C(C)C)(C(=O)C(C(=O)c3ccc(O)c(O)c3)=C2O)C1(C)C` [OBLONGIFOLIN D], the IC50 in experiment [3] turned out to be 92 µM. The outcome in experiment [2] was inactive.
Regarding `CC(=O)O[C@H]1C(=O)[C@@]2(C)[C@H]([C@H](OC(=O)c3ccccc3)[C@]3(O)C[C@H](OC(=O)[C@H](O)[C@@H](NC(=O)c4ccccc4)c4ccccc4)C(C)=C1C3(C)C)[C@]1(OC(C)=O)CO[C@@H]1C[C@@H]2O` [PACLITAXEL], the outcome in experiment [3] was inactive. This compound also came in with an IC50 in experiment [2] of 0.5 µM.

For the origin of these results see ChEMBL document CHEMBL1157943, “Oblongifolins A-D, polyprenylated benzoylphloroglucinol derivatives from Garcinia oblongifolia” (J Nat Prod, 2006).
